Results from publication PMC5834492, “Antimycobacterial drug discovery using Mycobacteria-infected amoebae identifies anti-infectives and new molecular targets” (Scientific Reports, 2018).
pIC50: −log10 of the molar value. Like-named read-outs stand apart in the source and are kept apart here.

Key:
[1] = test system: M. marinum luxCDABE; format: cell-based, Mycobacterium marinum; conditions: 10 µM
[2] = test system: M. marinum GFP; format: cell-based, Mycobacterium marinum; conditions: 10 µM; antibiotic assay
[3] = test system: M. marinum in A. castellanii; format: cell-based, Mycobacterium marinum; conditions: 10 µM
[4] = test system: M. marinum in BV2 microglial cells; format: cell-based, Mycobacterium marinum; conditions: for BV2 / M. marinum normalised growth, control=1.00, mean / hit in BV2/M. marinum assay True/False: 10 µM
[5] = test system: D. discoideum GFP-ABD; conditions: 10 µM
[6] = test system: Mtb H37Rv in THP-1; parameters: method as in Sorrentino et al, 2015; conditions: ref Sorrentino et al, 2015, cited from earlier work; for Extracellular MIC90/ Inracellular MIC90: ratio
[7] = test system: Mtb H37Rv; parameters: method as in Sorrentino et al, 2015; conditions: ref Sorrentino et al, 2015; cited from earlier work
[8] = THP1 / Mtb H37Rv infection assay

O=C(NCc1ccc2c(c1)OCO2)c1c(C(F)(F)F)nc2ccccn12 [GSK1829671A]
M. marinum luxCDABE normalised growth, control = 1.00, mean [1]: 0,00
M. marinum luxCDABE normalised growth, control=1.00, mean [1]: 0.00
M. marinum GFP normalised growth, control=1.00, mean [2]: 0.06
A. castellanii / M. marinum normalised growth, control=1.00, mean [3]: 0.66
Hits A. castellanii/M. marinum assay True/False [3]: FALSE
pIC50 [4]: 5.13
BV2 / M. marinum normalised growth, control=1.00, mean [4]: 0.49
hit in BV2/M. marinum assay True/False [4]: TRUE
D. discoideum GFP-ABD normalised growth, control = 1.00, mean [5]: 1,21
D. discoideum GFP-ABD normalised growth, control=1.00, mean [5]: 1.21
Intracelullar MIC90 in THP-1 ([6]; Mtb H37Rv-infected THP1 cells): 16.65 µM
Intracelullar MIC90 in THP-1 [6, 8]: 16.65 µM
Extracellular MIC90/ Inracellular MIC90 [6]: 0.2
Extracellular MIC90 [7]: 3.3 µM

O=C(NCc1ccc(Oc2ccccc2)cc1)c1c(C(F)(F)F)nc2ccccn12 [GSK1829676A]
M. marinum luxCDABE normalised growth, control = 1.00, mean [1]: 0,00
M. marinum luxCDABE normalised growth, control=1.00, mean [1]: 0.00
M. marinum GFP normalised growth, control=1.00, mean [2]: 0.0321
A. castellanii / M. marinum normalised growth, control=1.00, mean [3]: 0.56
Hits A. castellanii/M. marinum assay True/False [3]: FALSE
BV2 / M. marinum normalised growth, control=1.00, mean [4]: 0.35
hit in BV2/M. marinum assay True/False [4]: TRUE
D. discoideum GFP-ABD normalised growth, control=1.00, mean [5]: 0.75
Intracelullar MIC90 in THP-1 ([6]; Mtb H37Rv-infected THP1 cells): 0.21 µM
Intracelullar MIC90 in THP-1 [6, 8]: 0.21 µM
Extracellular MIC90/ Inracellular MIC90 [6]: 0.95
Extracellular MIC90 [7]: 0.2 µM

Cc1ccc2nc(C(F)(F)F)c(C(=O)NCc3ccc(C)o3)n2c1 [GSK1829728A]
M. marinum luxCDABE normalised growth, control = 1.00, mean [1]: 0,00
M. marinum luxCDABE normalised growth, control=1.00, mean [1]: 0.00
M. marinum GFP normalised growth, control=1.00, mean [2]: 0.10
A. castellanii / M. marinum normalised growth, control=1.00, mean [3]: 0.78
Hits A. castellanii/M. marinum assay True/False [3]: FALSE
pIC50 [4]: 5.39
BV2 / M. marinum normalised growth, control=1.00, mean [4]: 0.43
hit in BV2/M. marinum assay True/False [4]: TRUE
D. discoideum GFP-ABD normalised growth, control = 1.00, mean [5]: 1,01
D. discoideum GFP-ABD normalised growth, control=1.00, mean [5]: 1.01
Intracelullar MIC90 in THP-1 ([6]; Mtb H37Rv-infected THP1 cells): 1.85 µM
Intracelullar MIC90 in THP-1 [6, 8]: 1.85 µM
Extracellular MIC90/ Inracellular MIC90 [6]: 1.84
Extracellular MIC90 [7]: 3.4 µM

Cc1ccc2nc(C(F)(F)F)c(C(=O)NCc3cccs3)n2c1 [GSK1829729A]
M. marinum luxCDABE normalised growth, control = 1.00, mean [1]: 0,00
M. marinum luxCDABE normalised growth, control=1.00, mean [1]: 0.00
M. marinum GFP normalised growth, control=1.00, mean [2]: 0.0432
A. castellanii / M. marinum normalised growth, control=1.00, mean [3]: 0.52
Hits A. castellanii/M. marinum assay True/False [3]: FALSE
pIC50 [4]: 7.10
BV2 / M. marinum normalised growth, control=1.00, mean [4]: 0.48
hit in BV2/M. marinum assay True/False [4]: TRUE
D. discoideum GFP-ABD normalised growth, control=1.00, mean [5]: 0.86
Intracelullar MIC90 in THP-1 ([6]; Mtb H37Rv-infected THP1 cells): 0.61 µM
Intracelullar MIC90 in THP-1 [6, 8]: 0.61 µM
Extracellular MIC90/ Inracellular MIC90 [6]: 1.47
Extracellular MIC90 [7]: 0.9 µM

Cc1ccc2nc(C(F)(F)F)c(C(=O)NCc3ccc4c(c3)OCO4)n2c1 [GSK1829732A]
M. marinum luxCDABE normalised growth, control = 1.00, mean [1]: 0,00
M. marinum luxCDABE normalised growth, control=1.00, mean [1]: 0.00
M. marinum GFP normalised growth, control=1.00, mean [2]: 0.06
A. castellanii / M. marinum normalised growth, control=1.00, mean [3]: 0.56
Hits A. castellanii/M. marinum assay True/False [3]: FALSE
pIC50 [4]: 5.45
BV2 / M. marinum normalised growth, control=1.00, mean [4]: 0.34
hit in BV2/M. marinum assay True/False [4]: TRUE
D. discoideum GFP-ABD normalised growth, control = 1.00, mean [5]: 1,00
D. discoideum GFP-ABD normalised growth, control=1.00, mean [5]: 1.00
Intracelullar MIC90 in THP-1 ([6]; Mtb H37Rv-infected THP1 cells): 1.85 µM
Intracelullar MIC90 in THP-1 [6, 8]: 1.85 µM
Extracellular MIC90/ Inracellular MIC90 [6]: 0.59
Extracellular MIC90 [7]: 1.1 µM

Cc1ccc2nc(C(F)(F)F)c(C(=O)NCc3cccc(OC(C)C)c3)n2c1 [GSK1829733A]
M. marinum luxCDABE normalised growth, control=1.00, mean [1]: 0.00
M. marinum GFP normalised growth, control=1.00, mean [2]: 0.09
A. castellanii / M. marinum normalised growth, control=1.00, mean [3]: 0.68
pIC50 [4]: 5.47
BV2 / M. marinum normalised growth, control=1.00, mean [4]: 0.69
D. discoideum GFP-ABD normalised growth, control=1.00, mean [5]: 1.05
Intracelullar MIC90 in THP-1 [6, 8]: 1.85 µM
Extracellular MIC90/ Inracellular MIC90 [6]: 1.13
Extracellular MIC90 [7]: 2.1 µM

Cc1ccc2nc(C(F)(F)F)c(C(=O)NCc3cc(Cl)cc(Cl)c3)n2c1 [GSK1829736A]
M. marinum luxCDABE normalised growth, control = 1.00, mean [1]: 0,00
M. marinum luxCDABE normalised growth, control=1.00, mean [1]: 0.00
M. marinum GFP normalised growth, control=1.00, mean [2]: 0.04
A. castellanii / M. marinum normalised growth, control=1.00, mean [3]: 0.60
Hits A. castellanii/M. marinum assay True/False [3]: FALSE
pIC50 [4]: 5.66
BV2 / M. marinum normalised growth, control=1.00, mean [4]: 0.41
hit in BV2/M. marinum assay True/False [4]: TRUE
D. discoideum GFP-ABD normalised growth, control=1.00, mean [5]: 0.93
Intracelullar MIC90 in THP-1 ([6]; Mtb H37Rv-infected THP1 cells): 0.61 µM
Intracelullar MIC90 in THP-1 [6, 8]: 0.61 µM
Extracellular MIC90/ Inracellular MIC90 [6]: 1.47
Extracellular MIC90 [7]: 0.9 µM

Cc1ccc2nc(C)c(C(=O)NCC(C)C)n2c1 [GSK1829816A]
M. marinum luxCDABE normalised growth, control=1.00, mean [1]: 0.08
M. marinum GFP normalised growth, control=1.00, mean [2]: 0.20
A. castellanii / M. marinum normalised growth, control=1.00, mean [3]: 1.01
pIC50 [4]: 5.39
BV2 / M. marinum normalised growth, control=1.00, mean [4]: 0.61
D. discoideum GFP-ABD normalised growth, control=1.00, mean [5]: 1.03
Intracelullar MIC90 in THP-1 [6, 8]: 16.65 µM
Extracellular MIC90/ Inracellular MIC90 [6]: 0.46
Extracellular MIC90 [7]: 7.7 µM

Cc1ccc2nc(C)c(C(=O)NCc3ccco3)n2c1 [GSK1829819A]
M. marinum luxCDABE normalised growth, control = 1.00, mean [1]: 0,00
M. marinum luxCDABE normalised growth, control=1.00, mean [1]: 0.00
M. marinum GFP normalised growth, control=1.00, mean [2]: 0.08
A. castellanii / M. marinum normalised growth, control=1.00, mean [3]: 0.66
Hits A. castellanii/M. marinum assay True/False [3]: FALSE
pIC50 [4]: 5.41
BV2 / M. marinum normalised growth, control=1.00, mean [4]: 0.37
hit in BV2/M. marinum assay True/False [4]: TRUE
D. discoideum GFP-ABD normalised growth, control = 1.00, mean [5]: 1,08
D. discoideum GFP-ABD normalised growth, control=1.00, mean [5]: 1.08
Intracelullar MIC90 in THP-1 ([6]; Mtb H37Rv-infected THP1 cells): 0.61 µM
Intracelullar MIC90 in THP-1 [6, 8]: 0.61 µM
Extracellular MIC90/ Inracellular MIC90 [6]: 2.13
Extracellular MIC90 [7]: 1.3 µM

CCN(Cc1ccc2c(c1)OCO2)C(=O)CSc1nc(NC)c2ccccc2n1 [GSK1859936A]
M. marinum luxCDABE normalised growth, control=1.00, mean [1]: 0.07
M. marinum GFP normalised growth, control=1.00, mean [2]: 0.54
A. castellanii / M. marinum normalised growth, control=1.00, mean [3]: 1.03
pIC50 [4]: 5.38
BV2 / M. marinum normalised growth, control=1.00, mean [4]: 0.63
D. discoideum GFP-ABD normalised growth, control=1.00, mean [5]: 1.00
Intracelullar MIC90 in THP-1 [6, 8]: 16.65 µM
Extracellular MIC90/ Inracellular MIC90 [6]: 0.17
Extracellular MIC90 [7]: 2.8 µM

CNc1nc(SCC(=O)N(C)Cc2ccc(Cl)s2)nc2ccccc12 [GSK1925843A]
M. marinum luxCDABE normalised growth, control = 1.00, mean [1]: 0,00
M. marinum luxCDABE normalised growth, control=1.00, mean [1]: 0.00
M. marinum GFP normalised growth, control=1.00, mean [2]: 0.70
A. castellanii / M. marinum normalised growth, control=1.00, mean [3]: 1.12
A. castellanii/M. marinum normalised growth, control = 1.00, mean [3]: 1,12
Hits A. castellanii/M. marinum assay True/False [3]: FALSE
pIC50 [4]: 5.42
BV2 / M. marinum normalised growth, control=1.00, mean [4]: 0.43
hit in BV2/M. marinum assay True/False [4]: TRUE
D. discoideum GFP-ABD normalised growth, control = 1.00, mean [5]: 1,10
D. discoideum GFP-ABD normalised growth, control=1.00, mean [5]: 1.10
Intracelullar MIC90 in THP-1 ([6]; Mtb H37Rv-infected THP1 cells): 16.65 µM
Intracelullar MIC90 in THP-1 [6, 8]: 16.65 µM
Extracellular MIC90/ Inracellular MIC90 [6]: 0.34
Extracellular MIC90 [7]: 5.6 µM

Clc1ccc(CCNc2cc(-c3ccccc3)nc3ncnn23)cc1 [GSK1955236A]
M. marinum luxCDABE normalised growth, control=1.00, mean [1]: 0.00
M. marinum GFP normalised growth, control=1.00, mean [2]: 0.66
A. castellanii / M. marinum normalised growth, control=1.00, mean [3]: 1.32
pIC50 [4]: 5.24
BV2 / M. marinum normalised growth, control=1.00, mean [4]: 0.80
D. discoideum GFP-ABD normalised growth, control=1.00, mean [5]: 0.93
Intracelullar MIC90 in THP-1 [6, 8]: 1.85 µM
Extracellular MIC90/ Inracellular MIC90 [6]: 0.81
Extracellular MIC90 [7]: 1.5 µM
